# Reference: patent US8722580B2, “Agent for inhibiting cytokinin signaling” (Sumitomo Chemical Company, Limited, priority 2006, dated 2014)
# Experiments:
# cytokinin receptor CRE1 = molecular target: T1, cytokinin receptor CRE1 (Arabidopsis thaliana, UniProt Q9C5U0, S567G/T1018A); test: Inhibition of intracellular signaling from plant-derived cytokinin receptor, growth of transformed yeast cell TM182-CRE1; type: cell-based; settings: for inhibition at 2 ppm: read-out: Activity (%) of test substance for inhibiting intracellular signaling from plant-derived cytokinin receptor of cell; for Relative growth rate (%) in test section of test substance to control section, Transformed cell TM182-CRE1 / Activity (%) of test substance for inhibiting intracellular signaling from plant-derived cytokinin receptor of cell: trans-zeatin 0.6 ppm, chemical substance 2 ppm; for Relative growth rate (%) in test section of test substance to control section, Transformed cell TM182-CRE1: 30° C., 24 hours, turbidity OD 600; for Activity (%) of test substance for inhibiting intracellular signaling from plant-derived cytokinin receptor of cell: = 100 − relative growth rate of TM182-CRE1
# T1 construct: expressed in transfected cells; host or cells: Saccharomyces cerevisiae TM182 (sln1Δ) transformed with p415CYC-CRE1
# Experimental: (§1) The transformed cell TM182-CRE1 and the transformed cell TM182-p415CYC1 obtained in Example 6 were each inoculated in 10 ml of a DOLU+Gal medium, and preincubated at 30° C. for 18 hours to obtain a preincubation liquid for each of the transformed cells. The preincubation liquid was diluted with a DOLU+Glu medium for the transformed cell TM182-CRE1 or with a DOLU+Gal medium for the transformed cell TM182-p415CYC1 until OD600=0.1 was reached, to obtain a preincubation dilution for each of the transformed cells.
# (§2) To each well of a 96-well plate was added 1 μl of a 200 ppm solution of a test substance in dimethyl sulfoxide (DMSO) to prepare an Assay plate. At the same time, as controls, only 1 μl of DMSO was added to a part of wells. An assay plate for the transformed cell TM182-CRE1 and an assay plate for the transformed cell TM182-p415CYC1 were prepared.
# (§3) A 10,000 ppm solution of trans-zeatin (cytokinin) in DMSO was 50-fold diluted with a DOLU+Gul medium to 200 ppm. The 200 ppm trans-zeatin solution was added in an amount of 3/1,000 volume to each of the above-described preincubation dilution to prepare each preincubation dilution containing trans-zeatin at 0.6 ppm. The 0.6 ppm preincubation dilution was added in an amount of 100 μl to each wells of the assay plate for each transformed cell. The plates were incubated at 30° C. for 24 hours. Then, turbidity (OD 600) of each well was measured by using a plate reader. The activity of the test substance for inhibiting intracellular signaling from a plant-derived cytokinin receptor of a cell was tested by comparing the measured turbidity with the turbidity of the control well.
# (§4) (Relative growth rate in test section to control section) [%]=[(Turbidity in test section)−(Turbidity in blank)]/[(Turbidity in control section)−(Turbidity in blank)]×100 (Activity of inhibiting intracellular signaling from plant-derived cytokinin receptor of cell) [%]=100−(Relative growth rate in test section to control section)
# (§5) In all cases, the existing concentration of trans-zeatin was adjusted to 0.6 ppm and the existing concentration of a chemical substance was adjusted to 2 ppm.
# (§6) In all cases, the existing concentration of trans-zeatin was adjusted to 0.6 ppm and the existing concentration of a chemical substance was adjusted to 2 […].
# Arabidopsis thaliana [1] = test: Root growth-promoting activity test (Example 9); type: in vivo; settings: main root length vs control section, 22° C., 10 days; for activity at 2.5 ppm / activity at 10 ppm / activity at 5 ppm: Arabidopsis thaliana, 240 h; for activity at 2.5 ppm: test final concentration 2.5 ppm (concentration with highest root growth rate)
# Experimental: (§7) Enshi standard medium having the following composition (see Table 10) was prepared. To cluster tubes was dispensed each 4 μl of a solution of a chemical substance in DMSO to a final concentration of 0.001 ppm to 10 ppm, and then, was dispensed each 600 μl of the sterilized Enshi standard medium. Then the resulting solution was well mixed. In each of the cluster tubes, 10-20 seeds of Arabidopsis thaliana were sown, and cultured at 22° C. for 10 days in the light. Then, the length of main roots (average main roots) generated from the seeds of Arabidopsis thaliana was measured. An average of eight repeats was determined, and a root growth rate was determined according to the following equation.
# (§8) Root growth rate (%)=(Average main root length in chemical substance-treated section)/(Average main root length in control section)×100
# [2] = test system: transformed cell TM182-p415CYC1; test: Control growth test with transformed yeast cell TM182-p415CYC1 (toxicity to yeast); type: cell-based; settings: trans-zeatin 0.6 ppm; chemical substance 2 ppm; 30° C., 24 hours; turbidity OD 600
# Experimental: as §1, §2, §3, §4, §5, §6
# Arabidopsis thaliana [3] = test: Root growth-promoting activity test (Example 22); type: in vivo; settings: main root length vs control section, 22° C., 10 days
# Experimental: as §7, with “18)” for “10)”
# as §8
# Enshi standard medium determined having the following composition (Table 18) was prepared. A DMSO solution of a chemical substance was dispensed by 4 μl to cluster tubes to a final concentration of 0.001 ppm to 10 ppm and the sterilized Enshi standard medium was dispensed by 600 μl and then the resulting solution was well mixed. 10-20 seeds of A. thaliana per cluster tube were sown in the cluster tubes. After culture at 22° C. for 10 days in bright light, the length of main roots (average main roots) took from seeds of A. thaliana was measured. An average of eight repeats was determined and the root growth rate was determined.
# Root growth rate (%)=(Average main root length of chemical substance-treated section)/(Average main root length of control section)×100
# [4] = test final concentration 10 ppm (concentration with highest root growth rate)
# [5] = test final concentration 5 ppm (concentration with highest root growth rate)
# [6] = test final concentration 5 ppm (highest root growth rate)
# [7] = test final concentration 10 ppm (highest root growth rate)
# T1 sequence (Q9C5U0 24-1080 S567G/T1018A): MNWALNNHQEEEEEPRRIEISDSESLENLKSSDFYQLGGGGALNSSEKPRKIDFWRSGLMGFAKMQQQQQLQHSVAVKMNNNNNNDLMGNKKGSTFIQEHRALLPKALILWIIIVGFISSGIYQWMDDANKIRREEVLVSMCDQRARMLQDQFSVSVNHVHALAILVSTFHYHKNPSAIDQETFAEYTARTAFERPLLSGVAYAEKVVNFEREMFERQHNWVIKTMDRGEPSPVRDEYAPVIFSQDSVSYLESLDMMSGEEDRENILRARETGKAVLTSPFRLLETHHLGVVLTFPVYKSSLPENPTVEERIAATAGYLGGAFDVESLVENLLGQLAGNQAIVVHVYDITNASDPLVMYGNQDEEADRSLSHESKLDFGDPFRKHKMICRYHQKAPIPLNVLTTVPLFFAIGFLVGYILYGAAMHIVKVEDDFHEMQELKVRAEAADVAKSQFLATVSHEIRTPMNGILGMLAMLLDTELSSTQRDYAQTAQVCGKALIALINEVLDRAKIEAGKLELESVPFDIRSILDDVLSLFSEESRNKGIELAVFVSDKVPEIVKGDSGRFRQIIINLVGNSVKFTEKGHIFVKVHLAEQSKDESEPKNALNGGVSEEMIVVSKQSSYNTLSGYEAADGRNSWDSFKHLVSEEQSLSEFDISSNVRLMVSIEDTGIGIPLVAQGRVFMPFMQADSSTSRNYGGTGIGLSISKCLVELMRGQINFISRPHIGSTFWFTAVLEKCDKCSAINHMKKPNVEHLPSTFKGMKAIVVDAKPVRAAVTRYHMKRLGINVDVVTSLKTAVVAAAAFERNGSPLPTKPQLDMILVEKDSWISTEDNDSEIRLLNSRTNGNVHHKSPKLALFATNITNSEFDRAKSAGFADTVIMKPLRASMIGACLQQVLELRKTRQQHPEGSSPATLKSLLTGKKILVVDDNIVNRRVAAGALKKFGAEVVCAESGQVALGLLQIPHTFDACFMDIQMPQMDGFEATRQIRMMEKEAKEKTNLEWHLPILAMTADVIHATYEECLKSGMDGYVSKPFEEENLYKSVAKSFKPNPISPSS
Structure (SMILES),melting point,"Relative growth rate (%) in test section of test substance to control section, Transformed cell TM182-CRE1 (cytokinin receptor CRE1)","Relative growth rate (%) in test section of test substance to control section, Transformed cell TM182-p415CYC1 [2]",Activity (%) of test substance for inhibiting intracellular signaling from plant-derived cytokinin receptor of cell (cytokinin receptor CRE1),other results
"Clc1cc(Cl)c2nc(Cl)nc(-c3ccccc3)c2c1 [Ia1-12, 2,6,8-trichloro-4-phenylquinazoline]",160.3 °C,,,,
"CN(N)c1nc(-c2ccccc2)c2cc(Cl)ccc2n1 [Ic3-27, 6-chloro-2-(1-methylhydrazino)-4-phenylquinazoline]",155.9 °C,2.3%,107.4%,,inhibition at 2 ppm (cytokinin receptor CRE1): 97.7%; activity at 2.5 ppm (Arabidopsis thaliana [1]): 128%
"O=CNc1nc(-c2ccccc2)c2cc(Cl)ccc2n1 [Ic3-35, 6-chloro-2-formamido-4-phenylquinazoline]",252.1 °C,,,,activity at 10 ppm (Arabidopsis thaliana [1]; [4]): 144%; Root growth-promoting activity (root growth rate) (Arabidopsis thaliana [3]; test final concentration 2.5 ppm (highest root growth rate)): 134.0%
"Clc1nc(-c2ccccc2)c2cccc(Cl)c2n1 [Ia1-11, 2,8-dichloro-4-phenylquinazoline]",154.4 °C,,,,
"Clc1ccc2nc(NCc3ccco3)nc(-c3ccccc3)c2c1 [Ic3-16, 6-chloro-2-furfurylamino-4-phenylquinazoline]",142 °C,3.2%,97.0%,,inhibition at 2 ppm (cytokinin receptor CRE1): 96.8%; activity at 5 ppm (Arabidopsis thaliana [1]; [5]): 155%; Root growth-promoting activity (root growth rate) (Arabidopsis thaliana [3]; [6]): 155.3%
"Clc1ccc2nc(Cl)nc(-c3ccccc3)c2c1 [Ia1-3, 2,6-dichloro-4-phenylquinazoline]",166.2 °C,5.5%,113.9%,,inhibition at 2 ppm (cytokinin receptor CRE1): 94.5%; activity at 5 ppm (Arabidopsis thaliana [1]; [5]): 138%
OCCCCCCNc1nc(-c2ccccc2)c2cc(Cl)ccc2n1 [Ic3-11],,3.9%,84.6%,96.1%,Root growth-promoting activity (root growth rate) (Arabidopsis thaliana [1]; test final concentration 1.25 ppm (concentration with highest root growth rate)): 128.2%; Root growth-promoting activity (root growth rate) (Arabidopsis thaliana [3]; test final concentration 1.25 ppm (highest root growth rate)): 128.2%
"CONc1nc(-c2ccccc2)c2cc(Cl)ccc2n1 [Ic3-32, 6-chloro-2-methoxyamino-4-phenylquinazoline]",173.9 °C,4.5%,89.2%,,inhibition at 2 ppm (cytokinin receptor CRE1): 95.5%; activity at 5 ppm (Arabidopsis thaliana [1]; [5]): 123%
"Clc1ccc2nc(NCCSSCCNc3nc(-c4ccccc4)c4cc(Cl)ccc4n3)nc(-c3ccccc3)c2c1 [Ic3-15, bis[2-(6-chloro-4-phenyl-2-quinazolinyl)aminoethyl]disulfide]",159.2 °C,,,,activity at 5 ppm (Arabidopsis thaliana [1]; [5]): 131%
"Nc1nc(-c2ccccc2)c2cc(Cl)cc(Cl)c2n1 [Ic12-4, 2-amino-6,8-dichloro-4-phenylquinazoline]",212.7 °C,,,,
"OCCSc1nc(-c2ccccc2)c2cc(Cl)ccc2n1 [Ie3-1, 6-chloro-2-(2-hydroxyethylthio)-4-phenylquinazoline]",124.4 °C,2.3%,110.7%,,inhibition at 2 ppm (cytokinin receptor CRE1): 97.7%; activity at 5 ppm (Arabidopsis thaliana [1]; [5]): 121%
"CC(=O)SCCNc1nc(-c2ccccc2)c2cc(Cl)ccc2n1 [Ic3-14, 2-(2-acetylthioethylamino)-6-chloro-4-phenylquinazoline]",128.9 °C,,,,activity at 2.5 ppm (Arabidopsis thaliana [1]): 126%
OCCCCCNc1nc(-c2ccccc2)c2cc(Cl)ccc2n1 [Ic3-5],,3.5%,115.4%,96.5%,Root growth-promoting activity (root growth rate) (Arabidopsis thaliana [1]; test final concentration 0.625 ppm (concentration with highest root growth rate)): 134.0%; Root growth-promoting activity (root growth rate) (Arabidopsis thaliana [3]; test final concentration 0.625 ppm (highest root growth rate)): 134.0%
"SCCNc1nc(-c2ccccc2)c2cc(Cl)ccc2n1 [Ic3-13, 6-chloro-2-(2-mercaptoethylamino)-4-phenylquinazoline]",165.9 °C,,,,activity at 10 ppm (Arabidopsis thaliana [1]; [4]): 140%
C=CCNc1nc(-c2ccccc2)c2cc(Cl)ccc2n1 [Ic3-29],,1.6%,92.7%,98.4%,Root growth-promoting activity (root growth rate) (Arabidopsis thaliana [1]; [4]): 122.4%; Root growth-promoting activity (root growth rate) (Arabidopsis thaliana [3]; [7]): 122.4%
CC(O)CNc1nc(-c2ccccc2)c2cc(Cl)ccc2n1 (centres unmarked) [Ic3-39],,−1.3%,108.1%,101.3%,Root growth-promoting activity (root growth rate) (Arabidopsis thaliana [1]; [4]): 169.0%; Root growth-promoting activity (root growth rate) (Arabidopsis thaliana [3]; [7]): 169.0%
OCC(O)CNc1nc(-c2ccccc2)c2cc(Cl)ccc2n1 (centres unmarked) [Ic3-41],,8.8%,123.3%,91.2%,Root growth-promoting activity (root growth rate) (Arabidopsis thaliana [1]; [5]): 134.5%; Root growth-promoting activity (root growth rate) (Arabidopsis thaliana [3]; [6]): 134.5%
OCCCNc1nc(-c2ccccc2)c2cccc(Cl)c2n1 [Ic11-1],,2.2%,114.5%,97.8%,Root growth-promoting activity (root growth rate) (Arabidopsis thaliana [1]; [5]): 143.9%; Root growth-promoting activity (root growth rate) (Arabidopsis thaliana [3]; [6]): 143.9%
